Test results: US6087355A, “Cephalosporin antibiotics” (Microcide Pharmaceuticals, Inc., priority 1996, dated 2000)
Where a name gives a salt, the structure may show the parent alone.

Experiments:
Assay in all cases: In vitro MIC, agar dilution
Format in all cases: cell-based
[1] = test system: E. coli ATCC 25992; details: for MIC: Escherichia coli, ATCC25992, read-out: minimum inhibitory concentration (MIC)
Summary of the method: (§1)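 Agar dilution, Mueller-Hinton; drug 128 → ≤0.25 μg/mL two-fold, duplicates. Inoculum ~10^4 cfu/spot (log phase). 35-36 °C, 16-20 h. MIC = lowest conc. with no growth.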

[2] = test system: E. faecalis ATCC 29212; details: for MIC: Enterococcus faecalis, ATCC29212, read-out: minimum inhibitory concentration (MIC)
Summary of the method: as §1

[3] = test system: E. faecalis VanB(Van^R); details: for MIC: Enterococcus faecalis, read-out: minimum inhibitory concentration (MIC)
Summary of the method: as §1

[4] = test system: E. faecium A491(Amp^R); details: for MIC: Enterococcus faecium, read-out: minimum inhibitory concentration (MIC)
Summary of the method: as §1

[5] = test system: E. faecium ATCC 35667; details: for MIC: Enterococcus faecium, ATCC35667, read-out: minimum inhibitory concentration (MIC)
Summary of the method: as §1

[6] = test system: E. faecium VanA(Van^R); details: for MIC: Enterococcus faecium, read-out: minimum inhibitory concentration (MIC)
Summary of the method: as §1

[7] = test system: P. aeruginosa ATCC 27853; details: for MIC: Pseudomonas aeruginosa, ATCC27853, read-out: minimum inhibitory concentration (MIC)
Summary of the method: as §1

[8] = test system: S. aureus 76(Meth^R)(lac^+); details: for MIC: Staphylococcus aureus, read-out: minimum inhibitory concentration (MIC)
Summary of the method: as §1

[9] = test system: S. aureus ATCC 13709(Meth^S); details: for MIC: Staphylococcus aureus, ATCC13709, S. aureus ATCC 13709(Meth^S), read-out: minimum inhibitory concentration (MIC); for minimum inhibitory concentration (MIC): S. aureus ATCC 13709(Meth^S)
Summary of the method: as §1

[10] = test system: S. aureus ATCC 29213; details: for MIC: Staphylococcus aureus, ATCC29213, read-out: minimum inhibitory concentration (MIC)
Summary of the method: as §1

[11] = test system: S. aureus ATCC 33593(Meth^R); details: for MIC: Staphylococcus aureus, ATCC33593, read-out: minimum inhibitory concentration (MIC)
Summary of the method: as §1

[12] = test system: S. aureus PC1(Meth^S)(lac^+); details: for MIC: Staphylococcus aureus, read-out: minimum inhibitory concentration (MIC)
Summary of the method: as §1

[13] = test system: S. aureus Spain #356(Meth^R); details: for MIC: Staphylococcus aureus, read-out: minimum inhibitory concentration (MIC)
Summary of the method: as §1

[14] = test system: S. haemolyticus 05(Meth^R); details: for MIC: Staphylococcus haemolyticus, read-out: minimum inhibitory concentration (MIC)
Summary of the method: as §1

[15] = test system: S. aureus Col(Meth^R)(lac^-); details: for MIC: Staphylococcus aureus, read-out: minimum inhibitory concentration (MIC)
Summary of the method: (§2)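 Two-fold dilutions (128 to ≤0.25 μg/mL, in duplicate) were poured into Mueller-Hinton agar. Log-phase broth cultures were spot-inoculated at about 10^4 cfu per spot and incubated 35-36°C for 16-20 hours; the MIC was the lowest concentration inhibiting growth. Col is a high-level PBP2a producer; Col 8A is its isogenic PBP2a-lacking partner.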

[16] = test system: S. aureus Col8A(Meth^S)(lac^-); details: S. aureus Col8A(Meth^S)(lac^-); for MIC: Staphylococcus aureus, read-out: minimum inhibitory concentration (MIC)
Summary of the method: as §2

Compound | MIC [1] [µg/mL] | MIC [2] [µg/mL] | MIC [3] [µg/mL] | MIC [4] [µg/mL] | MIC [5] [µg/mL] | MIC [6] [µg/mL] | MIC [7] [µg/mL] | MIC [8] [µg/mL] | MIC [9] [µg/mL] | MIC [10] [µg/mL] | MIC [11] [µg/mL] | MIC [12] [µg/mL] | MIC [13] [µg/mL] | MIC [14] [µg/mL] | MIC [15] [µg/mL] | MIC [16] [µg/mL] | further results
NCCOCc1cnccc1SC1=C(C(=O)O)N2C(=O)[C@@H](NC(=O)/C(=N\O)c3nc(N)sc3Cl)[C@H]2SC1 [Cmpd 40, (7R)-7-[(Z)-2-(2-amino-5-chlorothiazol-4-yl)-2-(hydroxyimino)acetamido]-3-(3-(2-aminoethoxymethyl)pyrid-4-ylthio)-3-cephem-4-carboxylate, trifluoroacetic acid salt] | 8 | 0.13 | 0.25 | 16 | 1 | 2 | > 32 | 2 | 0.25 | 0.25 | 2 | 0.13 | 2 | 4 | 2 | 0.5 | 
NC/C=C\Cc1cnccc1SC1=C(C(=O)O)N2C(=O)[C@@H](NC(=O)/C(=N\O)c3nc(N)sc3Cl)[C@H]2SC1.O=C(O)C(F)(F)F [Cmpd 50, (7R)-7-[(Z)-2-(2-amino-5-chlorothiazol-4-yl)-2-(hydroxyimino)acetamido]-3-(3-(4-amino-2-Z-buten-1-yl)pyrid-4-ylthio)-3-cephem-4-carboxylate, trifluoroacetic acid salt] |  |  |  |  |  |  |  |  |  |  |  |  |  |  |  |  | minimum inhibitory concentration (MIC) [1]: 4 µg/mL; minimum inhibitory concentration (MIC) [2]: 0.13 µg/mL; minimum inhibitory concentration (MIC) [3]: 0.5 µg/mL; minimum inhibitory concentration (MIC) [4]: 16 µg/mL; minimum inhibitory concentration (MIC) [5]: 1 µg/mL; minimum inhibitory concentration (MIC) [6]: 2 µg/mL; minimum inhibitory concentration (MIC) [7]: > 32 µg/mL; minimum inhibitory concentration (MIC) [8]: 2 µg/mL; minimum inhibitory concentration (MIC) [9]: 0.13 µg/mL; minimum inhibitory concentration (MIC) [10]: 0.13 µg/mL; minimum inhibitory concentration (MIC) [11]: 2 µg/mL; minimum inhibitory concentration (MIC) [12]: 0.25 µg/mL; minimum inhibitory concentration (MIC) [13]: 2 µg/mL; minimum inhibitory concentration (MIC) [14]: 4 µg/mL; minimum inhibitory concentration (MIC) [15]: 2 µg/mL; minimum inhibitory concentration (MIC) [16]: 0.25 µg/mL
NCC[S+]([O-])Cc1cnccc1SC1=C(C(=O)O)N2C(=O)[C@@H](NC(=O)/C(=N\O)c3nc(N)sc3Cl)[C@H]2SC1 (stereo partly drawn) [Cmpd 53, (7R)-7-[(Z)-2-(2-amino-5-chlorothiazol-4-yl)-2-(hydroxyimino)acetamido]-3-(3-aminoethylsulfinylmethylpyrid-4-ylthio)-3-cephem-4-carboxylate, trifluoroacetic acid salt] | 4 | 0.13 | 0.25 | 16 | 1 | 2 | > 32 | 4 | 0.25 | 0.5 | 2 | 1 | 4 | 4 | 4 | 0.5 | 
Nc1nc(/C(=N/O)C(=O)N[C@@H]2C(=O)N3C(C(=O)O)=C(Sc4ccncc4CSC4CCNC4)CS[C@H]23)c(Cl)s1 (stereo partly drawn) [Cmpd 42, (7R)-7-[(Z)-2-(2-amino-5-chlorothiazol-4-yl)-2-(hydroxyimino)acetamido]-3-(3-(pyrrolidin-3-ylthiomethyl)pyrid-4-ylthio)-3-cephem-4-carboxylate, trifluoroacetic acid salt] | 2 | ≤ 0.06 | ≤ 0.06 | 4 | 0.25 | 0.5 | 32 | 1 | 0.13 | 0.13 | 1 | 0.13 | 1 | 2 | 0.5 | 0.25 | 
NCCSCc1cnccc1SC1=C(C(=O)O)N2C(=O)[C@@H](NC(=O)/C(=N\O)c3nc(N)sc3Br)[C@H]2SC1.O=C(O)C(F)(F)F [Cmpd 21, (7R)-7-[(Z)-2-(2-amino-5-bromothiazol-4-yl)-2-(hydroxyimino)acetamido]-3-(3-aminoethylthiomethylpyrid-4-ylthio)-3-cephem-4-carboxylate, trifluoroacetic acid salt] | 32 | 0.13 | 0.13 | 8 | 0.5 | 1 | > 32 | 1 | 1 | 0.25 | 1 | 0.5 | 1 | 2 | 1 | 0.25 | 
NCCSCc1cnccc1SC1=C(C(=O)O)N2C(=O)[C@@H](NC(=O)Cc3ccccc3)[C@H]2SC1.O=C(O)C(F)(F)F [Cmpd 9, (7R)-7-[(phenylacetyl)amino]-3-(3-aminoethylthiomethylpyrid-4-ylthio)-3-cephem-4-carboxylate, trifluoroacetic acid salt] | > 32 | 1 | 2 | > 32 | 1 | 4 | > 32 | 4 | ≤ 0.06 | 0.25 | 4 | 1 | 4 | 16 | 1 | 0.13 | 
(7R)-7-[(Z)-2-(aminothiazol-4-yl)-2-(hydroxyimino)acetamido]-3-[(guanidinoethylaminoethylthiomethyl)-1,2,3-thiadiazol-5-ylthio]-3-cephem-4-carboxylate, trifluoroacetic acid salt [Cmpd 12] |  |  |  |  |  |  |  |  |  |  |  |  |  |  |  |  | minimum inhibitory concentration (MIC) [1]: 8 µg/mL; minimum inhibitory concentration (MIC) [2]: 0.25 µg/mL; minimum inhibitory concentration (MIC) [3]: 0.5 µg/mL; minimum inhibitory concentration (MIC) [4]: > 32 µg/mL; minimum inhibitory concentration (MIC) [5]: 1 µg/mL; minimum inhibitory concentration (MIC) [6]: 4 µg/mL; minimum inhibitory concentration (MIC) [7]: > 32 µg/mL; minimum inhibitory concentration (MIC) [8]: 2 µg/mL; minimum inhibitory concentration (MIC) [9]: 0.25 µg/mL; minimum inhibitory concentration (MIC) [10]: 0.5 µg/mL; minimum inhibitory concentration (MIC) [11]: 2 µg/mL; minimum inhibitory concentration (MIC) [12]: 0.5 µg/mL; minimum inhibitory concentration (MIC) [13]: 2 µg/mL; minimum inhibitory concentration (MIC) [14]: 2 µg/mL; minimum inhibitory concentration (MIC) [15]: 2 µg/mL; minimum inhibitory concentration (MIC) [16]: 0.5 µg/mL
NCCSCc1nnsc1SC1=C(C(=O)O)N2C(=O)[C@@H](NC(=O)Cc3ccccc3)[C@H]2SC1.O=C(O)C(F)(F)F [Cmpd 37, (7R)-7-[(phenylacetyl)amino]-3-(4-(2-aminoethylthiomethyl)-1,2,3-thiadiazol-5-ylthio)-3-cephem-4-carboxylate, trifluoroacetic acid salt] | > 32 | 0.25 | 0.5 | > 32 | 0.5 | 2 | > 32 | 4 | ≤ 0.06 | 0.5 | 16 | 1 | 8 | 8 | 0.5 | ≤ 0.06 | 
CNCC(=O)NCCSCc1cnccc1SC1=C(C(=O)O)N2C(=O)[C@@H](NC(=O)/C(=N\O)c3nc(N)sc3Cl)[C@H]2SC1 [Cmpd 43, (7R)-7-[(Z)-2-(2-amino-5-chlorothiazol-4-yl)-2-(hydroxyimino)acetamido]-3-[3-(N-methylglycyl)aminoethylthiomethylpyrid-4-ylthio]-3-cephem-4-carboxylate, trifluoroacetic acid salt] | 8 | 0.13 | 0.25 | 8 | 1 | 1 | > 32 | 2 | 0.5 | 0.5 | 2 | 1 | 2 | 4 | 2 | 0.5 | 
